Assay results published in patent US20160214948A1, “PRODRUGS OF MONOMETHYL FUMARATE (MMF)” (RATIOPHARM GMBH, priority 2013, published 2016).

System: MOG35-55-induced experimental autoimmune encephalomyelitis (EAE)
Test: MOG35-55-induced experimental autoimmune encephalomyelitis (EAE) in C57BL/6 mice
Format: in vivo
Details: male C57BL/6 mice
Procedure: Assessment and Comparison of the Efficacy of Compounds of the Invention and DMF (Reference) in MOG35-55-Induced Experimental Autoimmune Encephalomyelitis (EAE) in C57BL/6 Mice
male C57BL/6 mice, 12 weeks old; 10 animals per treatment group;
Day 1—subcutaneous injection of MOG35-55, suspended in complete Freund's adjuvans and intraperitoneal injection of pertussis toxin.
Day 3—intraperitoneal injection of pertussis toxin.
Dimethylfumarate and test substances or vehicle only were administered via oral and intravenous route.
For oral administration, test substances were dissolved or suspended in 0.5% hydroxyethylcellulose (dissolved in 50 mM potassium dihydrogenphosphate, pH 5.0). Drug concentration in dose formulations: 11.54 mM;
Dose volume: 10 ml/kg body weight;
Start of treatment: Day 3
For intravenous administration, stock solutions were prepared in DMSO and serially diluted with phosphate buffered saline.
Observations were recorded on day 2, 4, 6, 8, 10, 12, 14 and 16.
Clinical score: grade 0-10; 0 (=no impairments), 1 (normal movement; limp tail: proximal 2/3 of the tail is limp and droopy), 2 (normal movement; whole tail is limp; 3 (wobbly walk; absent righting reflex), 4 (gait ataxia), 5 (milad paraparesis), 6 (moderate paraparesis), 7 (severe paraparesis or paraplegia), 8 (tetraparesis), 9 (moribund), 10 (death).

COC(=O)/C=C/C(=O)OCCN1CCSCC1 [Ia]
body weight (FIG. 4): substantially maintained | clinical score (grade 0-10, FIG. 3, with reference to DMF): reduced with reference to DMF
